The source made the active and inactive calls. The rule behind the calls is not given here.
Columns and labels:
[1] = system: Mus musculus; assay: Antiatherosclerotic activity in hypercholesterolemic ApoE-/- mouse model assessed as decrease in liver PCSK9 level at 5 to 15 mg/kg/day, ip measured after 21 days by immunohistochemistry analysis; assay type: functional, organism-based; details: dose 5-15 mg/kg/day, time 21.0 day
[2] = system: Mus musculus; assay: Synergistic antiatherosclerotic activity in hypercholesterolemic ApoE-/- mouse model assessed as decrease in liver oxidative stress at 5 to 15 mg/kg, ip administered daily for 3 weeks in presence of SIMV; assay type: functional, organism-based; details: dose 5-15 mg/kg
[3] = system: Huh-7; assay: Cytotoxicity against human Huh-7 cells upto 1000 nM incubated for 24 hrs by MTT assay; assay type: toxicity, cell-based; details: huh-7, 24 h, 1 µM
[4] = system: Mus musculus; assay: Antiatherosclerotic activity in hypercholesterolemic ApoE-/- mouse model assessed as decrease in liver fibrosis at 5 to 15 mg/kg/day, ip measured after 21 days by H and E staining based analysis; assay type: functional, organism-based; details: dose 5-15 mg/kg/day, time 21.0 day
[5] = system: Mus musculus; assay: Antiatherosclerotic activity in hypercholesterolemic ApoE-/- mouse model assessed as decrease in vacuolization in liver at 5 to 15 mg/kg/day, ip measured after 21 days by H and E staining based analysis; assay type: functional, organism-based; details: dose 5-15 mg/kg/day, time 21.0 day
[6] = system: Liver; assay: In vivo induction of PCSK9 degradation in liver of hypercholesterolemic ApoE-/- mouse model at administered intraperitoneally daily for 3 weeks in presence of SIMV by Western blot analysis; assay type: functional, organism-based; details: dose 5-15 mg/kg, route ip
[7] = system: Mus musculus; assay: Synergistic antiatherosclerotic activity in hypercholesterolemic ApoE-/- mouse model assessed as decrease in plasma LDL-C level at 15 mg/kg, ip administered daily for 3 weeks in presence of SIMV; assay type: functional; parameters: scale not given: the % may be the effect or the level left
[8] = system: Mus musculus; assay: Synergistic antiatherosclerotic activity in hypercholesterolemic ApoE-/- mouse model assessed as increase in liver LDLR at 5 to 15 mg/kg, ip administered daily for 3 weeks in presence of SIMV by Western blot analysis; assay type: functional, organism-based; details: dose 5-15 mg/kg
[9] = system: Mus musculus; assay: Synergistic antiatherosclerotic activity in hypercholesterolemic ApoE-/- mouse model assessed as increase in liver LDL uptake capacity at 5 to 15 mg/kg, ip administered daily for 3 weeks in presence of SIMV by Western blot analysis; assay type: functional, organism-based; details: dose 5-15 mg/kg
[10] = system: Mus musculus; assay: Synergistic antiatherosclerotic activity in hypercholesterolemic ApoE-/- mouse model assessed as decrease in liver fibrosis at 5 to 15 mg/kg, ip administered daily for 3 weeks in presence of SIMV by H and E staining based analysis; assay type: functional, organism-based; details: dose 5-15 mg/kg
[11] = system: Mus musculus; assay: Synergistic antiatherosclerotic activity in hypercholesterolemic ApoE-/- mouse model assessed as effect on plasma GSH level at 5 to 15 mg/kg, ip administered daily for 3 weeks in presence of SIMV; assay type: functional, organism-based; details: dose 5-15 mg/kg
[12] = system: Huh-7; assay: Effect on LC3B level in human Huh-7 cells upto 100 nM incubated for 24 hrs by Western blot analysis; assay type: functional, cell-based
[13] = system: Mus musculus; assay: Synergistic antiatherosclerotic activity in hypercholesterolemic ApoE-/- mouse model assessed as effect on plasma LDH level at 5 to 15 mg/kg, ip administered daily for 3 weeks in presence of SIMV; assay type: functional, organism-based; details: dose 5-15 mg/kg
[14] = system: Mus musculus; assay: Synergistic antiatherosclerotic activity in hypercholesterolemic ApoE-/- mouse model assessed as decrease in liver fibrosis at 5 to 15 mg/kg, ip administered daily for 3 weeks in presence of SIMV by Masson staining based analysis; assay type: functional, organism-based; details: dose 5-15 mg/kg
[15] = system: Mus musculus; assay: Antiatherosclerotic activity in hypercholesterolemic ApoE-/- mouse model assessed as decrease in liver fibrosis at 5 to 15 mg/kg/day, ip measured after 21 days by Masson staining based analysis; assay type: functional, organism-based; details: dose 5-15 mg/kg/day, time 21.0 day
[16] = system: Mus musculus; assay: Effect on body weight in hypercholesterolemic ApoE-/- mouse model at 0.5 to 30 mg/kg/day, ip measured for 14 days; assay type: functional, organism-based; details: dose 0.5-30 mg/kg/day, time 14.0 day
[17] = system: Huh-7; assay: Effect on PCSK9 mRNA level in human Huh-7 cells at 20 to 500 nM incubated for 12 hrs by qRT-PCR analysis; assay type: functional, cell-based; details: dose 20-500 nM
[18] = system: Mus musculus; assay: Antiatherosclerotic activity in hypercholesterolemic ApoE-/- mouse model assessed as decrease in plasma triglyceride level administered intraperitoneally measured after 14 days; assay type: functional, organism-based; details: dose 15.0 mg/kg/day, route ip, time 14.0 day
[19] = system: Mus musculus; assay: Antiatherosclerotic activity in hypercholesterolemic ApoE-/- mouse model assessed as decrease in plasma LDL-C level administered intraperitoneally measured after 21 days; assay type: functional, organism-based; details: dose 5-15 mg/kg/day, route ip, time 21.0 day
[20] = system: Mus musculus; assay: Antiatherosclerotic activity in hypercholesterolemic ApoE-/- mouse model assessed as accumulation of cholesterol in liver at 5 to 15 mg/kg/day, ip measured after 21 days; assay type: functional, organism-based; details: dose 5-15 mg/kg/day, time 21.0 day
[21] = system: Mus musculus; assay: Synergistic antiatherosclerotic activity in hypercholesterolemic ApoE-/- mouse model assessed as decrease in vacuolization in liver at 5 to 15 mg/kg, ip administered daily for 3 weeks in presence of SIMV by Masson staining based analysis; assay type: functional, organism-based; details: dose 5-15 mg/kg
[22] = system: Mus musculus; assay: Synergistic antiatherosclerotic activity in hypercholesterolemic ApoE-/- mouse model assessed as decrease in liver cholesterol level at 5 to 15 mg/kg, ip administered daily for 3 weeks in presence of SIMV; assay type: functional, organism-based; details: dose 5-15 mg/kg
[23] = system: Mus musculus; assay: Antiatherosclerotic activity in hypercholesterolemic ApoE-/- mouse model assessed as decrease in liver PCSK9 level at 5 to 15 mg/kg/day, ip measured after 21 days by Western blot analysis; assay type: functional, organism-based; details: dose 5-15 mg/kg/day, time 21.0 day
[24] = system: Mus musculus; assay: Antiatherosclerotic activity in hypercholesterolemic ApoE-/- mouse model assessed as decrease in plasma TG level administered intraperitoneally measured after 21 days; assay type: functional, organism-based; details: dose 5-15 mg/kg/day, route ip, time 21.0 day
[25] = system: Mus musculus; assay: Antiatherosclerotic activity in hypercholesterolemic ApoE-/- mouse model assessed as increase in liver LDLR level administered intraperitoneally measured after 14 days; assay type: functional, organism-based; details: dose 15.0 mg/kg/day, route ip, time 14.0 day
[26] = system: Mus musculus; assay: Antiatherosclerotic activity in hypercholesterolemic ApoE-/- mouse model assessed as increase in liver LDLR level at 5 to 15 mg/kg/day, ip measured after 21 days by immunohistochemistry analysis; assay type: functional, organism-based; details: dose 5-15 mg/kg/day, time 21.0 day
[27] = system: Mus musculus; assay: Antiatherosclerotic activity in hypercholesterolemic ApoE-/- mouse model assessed as decrease in plasma PCSK9 level at 5 to 15 mg/kg/day, ip measured after 21 days; assay type: functional, organism-based; details: dose 5-15 mg/kg/day, time 21.0 day
[28] = system: Mus musculus; assay: Antiatherosclerotic activity in hypercholesterolemic ApoE-/- mouse model assessed as decrease in plaque area in […] at 5 to 15 mg/kg/day, ip measured after 21 days; assay type: functional, organism-based; details: dose 5-15 mg/kg/day, time 21.0 day
[29] = system: Mus musculus; assay: Antiatherosclerotic activity in hypercholesterolemic ApoE-/- mouse model assessed as decrease in plaque area in aortic arch at 5 to 15 mg/kg/day, ip measured after 21 days by Aortic oil red O staining based analysis; assay type: functional, organism-based; details: dose 5-15 mg/kg/day, time 21.0 day
[30] = system: Mus musculus; assay: Antiatherosclerotic activity in hypercholesterolemic ApoE-/- mouse model assessed as decrease in TG accumulation in liver at 5 to 15 mg/kg/day, ip measured after 21 days; assay type: functional, organism-based; details: dose 5-15 mg/kg/day, time 21.0 day
[31] = system: Huh-7; assay: Effect on LDLR mRNA level in human Huh-7 cells at 20 to 500 nM incubated for 12 hrs by qRT-PCR analysis; assay type: functional, cell-based; details: dose 20-500 nM
[32] = system: Mus musculus; assay: Antiatherosclerotic activity in hypercholesterolemic ApoE-/- mouse model assessed as decrease in oxidative stress in liver at 5 to 15 mg/kg/day, ip measured after 21 days; assay type: functional, organism-based; details: dose 5-15 mg/kg/day, time 21.0 day
[33] = system: Mus musculus; assay: Antiatherosclerotic activity in hypercholesterolemic ApoE-/- mouse model assessed as increase in liver LDLR level at 5 to 15 mg/kg/day, ip measured after 21 days by Western blot analysis; assay type: functional, organism-based; details: dose 5-15 mg/kg/day, time 21.0 day
[34] = system: Huh-7; details: Homo sapiens, dose <= 100.0 nM
Description: Inhibition of oxidative stress injury in PA/LPS-stimulated human Huh-7 cells assessed as decrease in triglyceride level upto 100 nM

[35] = system: Mus musculus; assay: Synergistic antiatherosclerotic activity in hypercholesterolemic ApoE-/- mouse model assessed as decrease in plaque area in aortic arch at 5 to 15 mg/kg, ip administered daily for 3 weeks in presence of SIMV by Aortic oil red O staining based analysis; assay type: functional, organism-based; details: dose 5-15 mg/kg
[36] = system: Huh-7; assay: Effect on SREBP2 mRNA level in human Huh-7 cells at 20 to 500 nM incubated for 12 hrs by qRT-PCR analysis; assay type: functional, cell-based; details: dose 20-500 nM
[37] = system: Mus musculus; assay: Antiatherosclerotic activity in hypercholesterolemic ApoE-/- mouse model assessed as decrease in liver damage at 5 to 15 mg/kg/day, ip measured after 21 days; assay type: functional, organism-based; details: dose 5-15 mg/kg/day, time 21.0 day
[38] = system: Mus musculus; assay: Antiatherosclerotic activity in hypercholesterolemic ApoE-/- mouse model assessed as decrease in oxidative stress at 5 to 15 mg/kg/day, ip measured after 21 days; assay type: functional, organism-based; details: dose 5-15 mg/kg/day, time 21.0 day
[39] = system: Mus musculus; assay: Antiatherosclerotic activity in hypercholesterolemic ApoE-/- mouse model assessed as decrease in vacuolization in liver at 5 to 15 mg/kg/day, ip measured after 21 days by Masson staining based analysis; assay type: functional, organism-based; details: dose 5-15 mg/kg/day, time 21.0 day
[40] = system: Mus musculus; assay: Antiatherosclerotic activity in hypercholesterolemic ApoE-/- mouse model assessed as decrease in liver PCSK9 level administered intraperitoneally measured after 14 days; assay type: functional, organism-based; details: dose 15.0 mg/kg/day, route ip, time 14.0 day
[41] = system: Mus musculus; assay: Synergistic antiatherosclerotic activity in hypercholesterolemic ApoE-/- mouse model assessed as […] in liver IL-1beta level at 5 to 15 mg/kg, ip administered daily for 3 weeks in presence of SIMV by Western blot analysis; assay type: functional, organism-based; details: dose 5-15 mg/kg
[42] = system: Mus musculus; assay: Synergistic antiatherosclerotic activity in hypercholesterolemic ApoE-/- mouse model assessed as effect on plasma TG level at 5 to 15 mg/kg, ip administered daily for 3 weeks in presence of SIMV; assay type: functional, organism-based; details: dose 5-15 mg/kg
[43] = system: Mus musculus; assay: Synergistic antiatherosclerotic activity in hypercholesterolemic ApoE-/- mouse model assessed as decrease in vacuolization in liver at 5 to 15 mg/kg, ip administered daily for 3 weeks in presence of SIMV by H and E staining based analysis; assay type: functional, organism-based; details: dose 5-15 mg/kg
[44] = system: Mus musculus; assay: Synergistic antiatherosclerotic activity in hypercholesterolemic ApoE-/- mouse model assessed as effect on plasma MDA level at 5 to 15 mg/kg, ip administered daily for 3 weeks in presence of SIMV; assay type: functional, organism-based; details: dose 5-15 mg/kg
[45] = system: Huh-7; assay: Effect on autophagic flux in human Huh-7 cells upto 100 nM incubated for 24 hrs by Western blot analysis; assay type: functional, cell-based
[46] = system: Mus musculus; assay: Antiatherosclerotic activity in hypercholesterolemic ApoE-/- mouse model assessed as decrease in plasma LDL-C level administered intraperitoneally measured after 14 days; assay type: functional, organism-based; details: dose 15.0 mg/kg/day, route ip, time 14.0 day

## COc1cc2c(cc1OCCCCN1C(=O)/C(=C\c3cc(Br)c(O)c(OC)c3)c3cc(Br)ccc31)C(C)(CC(=O)Nc1nccs1)NCC2 (stereo unspecified)
[1]
  Activity: Active
[2]
  Activity: Active
[3]
  Activity: Non-Toxic
[4]
  Activity: Active
[5]
  Activity: Active
[6]
  Activity: Dose-Dependent Effect
[7]
  Activity: <=47.36%
[8]
  Activity: Active
[9]
  Activity: Active
[10]
  Activity: Active
[11]
  Activity: Active
[12]
  Activity: inactive
[13]
  Activity: Active
[14]
  Activity: Active
[15]
  Activity: Active
[16]
  Activity: inactive
[17]
  Activity: inactive
[18]
  Activity: Dose-Dependent Effect
[19]
  Activity: Dose-Dependent Effect
[20]
  Activity: Active
[21]
  Activity: Active
[22]
  Activity: Active
[23]
  Activity: Active
[24]
  Activity: Dose-Dependent Effect
[25]
  Activity: Dose-Dependent Effect
[26]
  Activity: Active
[27]
  Activity: Active
[28]
  Activity: Active
[29]
  Activity: Active
[30]
  Activity: Active
[31]
  Activity: inactive
[32]
  Activity: Active
[33]
  Activity: Active
[34]
  inhibition: Active
[35]
  Activity: Active
[36]
  Activity: inactive
[37]
  Activity: Active
[38]
  Activity: Active
[39]
  Activity: Active
[40]
  Activity: Dose-Dependent Effect
[41]
  Activity: Active
[42]
  Activity: Active
[43]
  Activity: Active
[44]
  Activity: Active
[45]
  Activity: inactive
[46]
  Activity: Dose-Dependent Effect

Reference: ChEMBL document CHEMBL5537152, “Targeted Degradation of PCSK9 In Vivo by Autophagy-Tethering Compounds” (J Med Chem, 2024)
